ChEMBL document CHEMBL1148902, “A cytotoxic cyclic heptapeptide from the seeds of Annona cherimola” (J Nat Prod, 2004)
Where a SMILES comes first, the peptide text is derived from it.

System: KB
Assay: Cytotoxicity against human KB cells
Format: functional, cell-based

Structure (SMILES) | IC50 [nM]
CC[C@H](C)[C@@H]1NC(=O)[C@H](Cc2c[nH]c3ccccc23)NC(=O)[C@H](C)NC(=O)[C@H](C)NC(=O)CNC(=O)[C@@H]2CCCN2C(=O)[C@@H]2CCCN2C1=O [CHERIMOLACYCLOPEPTIDE C] (cyclo(AAWIPPG)) | 72
COc1cccc2c1C(=O)c1c(O)c3c(c(O)c1C2=O)C[C@@](O)(C(=O)CO)C[C@@H]3O[C@H]1C[C@H](N)[C@H](O)[C@H](C)O1 [DOXORUBICIN] | 20
